Experimental data: patent US20230255873A1, “COSMETIC OR DERMATOLOGICAL PEPTIDE-BASED TREATMENT OF THE SKIN AND ITS INTEGUMENTS” (Sederma, priority 2020, published 2023)
The star is where a group is joined. Palmitoyl = CCCCCCCCCCCCCCCC(=O)*

B1: Pal-KTSKS-OH (peptide)
peptide: Palmitoyl-KTSKS-OH
SMILES: CCCCCCCCCCCCCCCC(=O)N[C@@H](CCCCN)C(=O)N[C@H](C(=O)N[C@@H](CO)C(=O)N[C@@H](CCCCN)C(=O)N[C@@H](CO)C(=O)O)[C@@H](C)O

Assays:
P. acnes = P. acnes growth curve (time to OD600 nm = 0.5); type: cell-based, Propionibacterium acnes; settings: for Time (in hour) to reach OD600 nm = 0.5: vehicle 42-44 h
Method: 1—P. acnes growth curve (same protocol as described above at point 1.4)
P. acnes is thawed and grown over 3 days in M20 media. Then, optical density at 600 nm (OD600) is measured and 2×10^6 CFU*/mL are plated in well plates. P. acnes is then treated with 6 ppm, 9 ppm and 12 ppm of peptides. To follow bacterial cell multiplication, OD600 is measured regularly for about 1 week. […] Statistical evaluations are performed on results using a Student t test. Two independent experiments are performed (N=2).

[1] = test system: normal human keratinocytes (NHK); assay: Involucrin quantification by immunohistochemistry in NHK; type: cell-based; settings: 5 ppm
Method: Normal human keratinocytes (NHK) are grown on wells plate. When subconfluence was reached, cells received various concentrations of the peptides. After few days, evaluation of differentiation is compared to solvent control under microscope and cells are fixed to allow the study of involucrin by immunohistochemistry.
Involucrin is an early marker of keratinocytes differentiation. The below table show the percentage of variation of involucrin vs. Control.

[2] = molecular target: extracellular lipases of P. acnes (Propionibacterium acnes); assay: cell-based or functional assay

Molecule | Delay in P. acnes growth versus vehicle (P. acnes; 6 ppm) | Time (in hour) to reach OD600 nm = 0.5 (P. acnes; 6 ppm) [h] | Delay in P. acnes growth versus vehicle (P. acnes; 9 ppm) | Time (in hour) to reach OD600 nm = 0.5 (P. acnes; 9 ppm) [h] | Delay in P. acnes growth versus vehicle (P. acnes; 12 ppm) | Time (in hour) to reach OD600 nm = 0.5 (P. acnes; 12 ppm) [h] | Involucrin (% var vs. Control) [1] | Reduction in lipase activity of P. acnes (4-MUO fluorescent probe), variation (%) vs solvent control, 6 ppm of peptide [2] [%] | Reduction in lipase activity of P. acnes (4-MUO fluorescent probe), variation (%) vs solvent control, 9 ppm of peptide [2] [%] | Reduction in lipase activity of P. acnes (4-MUO fluorescent probe), variation (%) vs solvent control, 12 ppm of peptide [2] [%]
Pal-GKTSKS-OH | +2 h | 45.6 | +12 h | 56.2 | +26 h | 70.2 | – | – | – | –
Pal-KTSKSA-OH (Palmitoyl-KTSKSA-OH; SMILES CCCCCCCCCCCCCCCC(=O)N[C@@H](CCCCN)C(=O)N[C@H](C(=O)N[C@@H](CO)C(=O)N[C@@H](CCCCN)C(=O)N[C@@H](CO)C(=O)N[C@@H](C)C(=O)O)[C@@H](C)O) [other preferred peptide of the invention, palmitoyl hexapeptide KTSKSA] | +5 h | 47.3 | +15 h | 57.9 | +18 h | 60.5 | +152%; p < 0.01 | – | – | –
Pal-KTSKT-OH (Palmitoyl-KTSKT-OH; SMILES CCCCCCCCCCCCCCCC(=O)N[C@@H](CCCCN)C(=O)N[C@H](C(=O)N[C@@H](CO)C(=O)N[C@@H](CCCCN)C(=O)N[C@H](C(=O)O)[C@@H](C)O)[C@@H](C)O) [other preferred peptide of the invention, palmitoyl pentapeptide KTSKT] | +5 h | 47.7 | +13 h | 55.2 | +43 h | 85.1 | +125%; p < 0.01 | – | – | –
B1 | – | – | – | – | – | – | – | -22 | -64 | -88
